Experimental data taken from patent US20060148744A1, “Use of cis-epoxyeicosantrienoic acids and inhibitors of soluble epoxide hydrolase to reduce damage from stroke” (priority 2004, published 2006).

Legend:
sEH = biological target: T1, sEH (Homo sapiens, UniProt P34913); assay: Inhibition of sEH; format: biochemical; settings: result in words
T1 sequence (P34913 1-555): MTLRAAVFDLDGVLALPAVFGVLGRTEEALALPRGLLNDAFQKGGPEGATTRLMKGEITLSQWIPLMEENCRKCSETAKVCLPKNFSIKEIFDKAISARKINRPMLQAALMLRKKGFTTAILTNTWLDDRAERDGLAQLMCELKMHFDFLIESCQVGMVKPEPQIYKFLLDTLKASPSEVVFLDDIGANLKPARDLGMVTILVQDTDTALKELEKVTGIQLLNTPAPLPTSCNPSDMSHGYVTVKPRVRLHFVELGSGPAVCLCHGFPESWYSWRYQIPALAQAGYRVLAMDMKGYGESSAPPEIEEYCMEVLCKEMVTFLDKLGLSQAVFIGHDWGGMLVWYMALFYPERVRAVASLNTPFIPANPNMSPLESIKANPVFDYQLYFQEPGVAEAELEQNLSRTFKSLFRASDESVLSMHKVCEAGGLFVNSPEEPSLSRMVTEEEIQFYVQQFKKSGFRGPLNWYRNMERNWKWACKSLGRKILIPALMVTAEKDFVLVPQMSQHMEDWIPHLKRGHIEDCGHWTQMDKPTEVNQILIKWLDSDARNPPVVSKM
Excerpt: Any of a number of standard assays for determining epoxide hydrolase activity can be used to determine inhibition of sEH. For example, suitable assays are described in Gill, et al., Anal Biochem 131, 273-282 (1983); and Borhan, et al., Analytical Biochemistry 231, 188-200 (1995)). Suitable in vitro assays are described in Zeldin et al., J Biol. Chem. 268:6402-6407 (1993). Suitable in vivo assays are described in Zeldin et al., Arch Biochem Biophys 330:87-96 (1996). […]
The enzyme also can be detected based on the binding of specific ligands to the catalytic site which either immobilize the enzyme or label it with a probe such as dansyl, fluoracein, luciferase, green fluorescent protein or other reagent. […] The enzyme also can be detected based on the generation of fluorescent products following the hydrolysis of the epoxide. […]

Metabolic stability = format: in vitro ADME; settings: result in words
[1] = Systolic blood pressure in treated SPSHR; format: in vivo, rat; settings: SPSHR treated with AUDA
Excerpt: This difference in infarct size occurred independently of changes in systolic blood pressure (193±2 vs. 197±6 mm Hg, AUDA vs. vehicle).

[2] = test system: stroke prone spontaneously hypertensive rats; assay: Cerebral ischemia by middle cerebral artery occlusion (intralumenal suture), infarct size by TTC staining; format: in vivo, rat; settings: SPSHR, six weeks oral treatment, six hours post MCA occlusion, n=6, p<0.01 vs. vehicle
Method: After six weeks of treatment, cerebral ischemia was induced by middle cerebral artery occlusion using the intralumenal suture occlusion technique. Rats were anesthetized with sodium pentobarbital (50 mg/kg IP) and body temperature was maintained at 37° C. using a microprocessor-controlled heating pad and a rectal temperature probe. The skin over the skull was retracted and the bone was thinned using a low speed drill. A laser Doppler flow probe (Perimed) was glued to the skull 2 mm posterior and 6 mm lateral to the bregma to allow for confirmation of middle cerebral artery (“MCA”) occlusion. The MCA was then occluded using the thread occlusion model as described by Zea Longa et al. “Reversible middle cerebral artery occlusion without craniotomy in rats”, Stroke 20:84-91 (1989). The common carotid artery was exposed by a midline incision and the pterygopalatine artery was ligated and the branches of the external carotid artery were cauterized. A 3-0 monofilament thread with a rounded tip was introduced into the external carotid artery in a retrograde fashion. […] Digital images of the brain slices were produced and the infarct volume was analyzed using a computerized image analysis system (NIH image, version 1.55). The percent of the hemisphere infarcted was measured using the Swanson equation to account for cerebral edema. […]

[3] = rat, in vivo, po
Method: The sEH inhibitor, adamantyl dodecanoic acid (AUDA) was administered orally to six-week-old male stroke prone spontaneously hypertensive rats (“SPSHR”).

| Compound | activity as an inhibitor of sEH (sEH) | metabolic stability (Metabolic stability) | systolic blood pressure [1] [mm Hg] | % hemisphere infarcted [2] [% hemisphere infarcted] | Plasma levels of AUDA at the end of the treatment period [3] [ng/mL] | urinary AUDA excretion rate [3] [ng/day] |
| --- | --- | --- | --- | --- | --- | --- |
| CCCCCCCCCCCCNC(=O)NC12CC3CC(CC(C3)C1)C2 [ADU, N-Adamantyl-N′-dodecyl urea] | particularly high activity on sEH | metabolically stable | – | – | – | – |
| adamantyl dodecanoic acid [AUDA] | – | – | 193±2 | 35.9±3.83 | 5.03 ± 0.32 | 111.6 ± 24.4 |
